Our source for the IC50 values is patent US8148391B2 (Cephalon, Inc., priority 2006, dated 2012).

In test [1] the target is T1, baculovirus-expressed ALK (Homo sapiens, UniProt Q9UM73).
T1 construct: host or cells: baculovirus expression system
Kind of test: ALK Kinase Assay (ELISA-type, time-resolved fluorescence). The format is biochemical. The conditions noted are these: ALK kinase inhibition, 1 μM ATP; read-out: ALK Activity. An outline of the steps:
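Substrate coating: phospholipase C-γ, 10 μg/mL in TBS. Kinase step: 30 ng/ml ALK, 15 min, 37° C. Detection and analysis: Eu-N1 PT66 antibody, with IC50 fitted as a sigmoidal variable-slope dose-response curve.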
For orientation: In an ELISA, binding on a coated surface is turned into a signal by an enzyme label.

For test [2], the target named is T2, c-Met (cytoplasmic domain) (Homo sapiens, UniProt P08581).
T2 construct: 10 ng/mL c-Met (cytoplasmic domain, Invitrogen Corporation #PV3143); purchased Invitrogen Corporation PV3143
Nature of the test: c-Met Kinase Assay (same methods as for ALK, with modifications). The format is biochemical. The conditions noted are these: c-Met kinase inhibition, 1 μM ATP; read-out: cMet Activity. An outline of the steps:
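This plate-based kinase format uses immobilized phospholipase C-γ as substrate, phosphorylated by c-Met cytoplasmic domain (10 ng/mL) at 37° C for 15 minutes.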

T2 sequence (P08581 956-1390 limits assumed): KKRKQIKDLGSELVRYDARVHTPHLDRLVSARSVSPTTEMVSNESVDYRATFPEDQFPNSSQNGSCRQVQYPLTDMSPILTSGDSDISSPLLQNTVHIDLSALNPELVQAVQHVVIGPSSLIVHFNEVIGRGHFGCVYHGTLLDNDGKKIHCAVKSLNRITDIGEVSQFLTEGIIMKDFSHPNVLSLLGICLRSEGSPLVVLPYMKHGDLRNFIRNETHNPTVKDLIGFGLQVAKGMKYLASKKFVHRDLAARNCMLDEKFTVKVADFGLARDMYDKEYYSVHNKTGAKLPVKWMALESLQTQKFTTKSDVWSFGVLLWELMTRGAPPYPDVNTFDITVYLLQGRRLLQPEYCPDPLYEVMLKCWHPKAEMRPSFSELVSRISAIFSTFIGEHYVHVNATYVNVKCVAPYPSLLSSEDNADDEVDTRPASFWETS
T1 sequence (Q9UM73 19-1620): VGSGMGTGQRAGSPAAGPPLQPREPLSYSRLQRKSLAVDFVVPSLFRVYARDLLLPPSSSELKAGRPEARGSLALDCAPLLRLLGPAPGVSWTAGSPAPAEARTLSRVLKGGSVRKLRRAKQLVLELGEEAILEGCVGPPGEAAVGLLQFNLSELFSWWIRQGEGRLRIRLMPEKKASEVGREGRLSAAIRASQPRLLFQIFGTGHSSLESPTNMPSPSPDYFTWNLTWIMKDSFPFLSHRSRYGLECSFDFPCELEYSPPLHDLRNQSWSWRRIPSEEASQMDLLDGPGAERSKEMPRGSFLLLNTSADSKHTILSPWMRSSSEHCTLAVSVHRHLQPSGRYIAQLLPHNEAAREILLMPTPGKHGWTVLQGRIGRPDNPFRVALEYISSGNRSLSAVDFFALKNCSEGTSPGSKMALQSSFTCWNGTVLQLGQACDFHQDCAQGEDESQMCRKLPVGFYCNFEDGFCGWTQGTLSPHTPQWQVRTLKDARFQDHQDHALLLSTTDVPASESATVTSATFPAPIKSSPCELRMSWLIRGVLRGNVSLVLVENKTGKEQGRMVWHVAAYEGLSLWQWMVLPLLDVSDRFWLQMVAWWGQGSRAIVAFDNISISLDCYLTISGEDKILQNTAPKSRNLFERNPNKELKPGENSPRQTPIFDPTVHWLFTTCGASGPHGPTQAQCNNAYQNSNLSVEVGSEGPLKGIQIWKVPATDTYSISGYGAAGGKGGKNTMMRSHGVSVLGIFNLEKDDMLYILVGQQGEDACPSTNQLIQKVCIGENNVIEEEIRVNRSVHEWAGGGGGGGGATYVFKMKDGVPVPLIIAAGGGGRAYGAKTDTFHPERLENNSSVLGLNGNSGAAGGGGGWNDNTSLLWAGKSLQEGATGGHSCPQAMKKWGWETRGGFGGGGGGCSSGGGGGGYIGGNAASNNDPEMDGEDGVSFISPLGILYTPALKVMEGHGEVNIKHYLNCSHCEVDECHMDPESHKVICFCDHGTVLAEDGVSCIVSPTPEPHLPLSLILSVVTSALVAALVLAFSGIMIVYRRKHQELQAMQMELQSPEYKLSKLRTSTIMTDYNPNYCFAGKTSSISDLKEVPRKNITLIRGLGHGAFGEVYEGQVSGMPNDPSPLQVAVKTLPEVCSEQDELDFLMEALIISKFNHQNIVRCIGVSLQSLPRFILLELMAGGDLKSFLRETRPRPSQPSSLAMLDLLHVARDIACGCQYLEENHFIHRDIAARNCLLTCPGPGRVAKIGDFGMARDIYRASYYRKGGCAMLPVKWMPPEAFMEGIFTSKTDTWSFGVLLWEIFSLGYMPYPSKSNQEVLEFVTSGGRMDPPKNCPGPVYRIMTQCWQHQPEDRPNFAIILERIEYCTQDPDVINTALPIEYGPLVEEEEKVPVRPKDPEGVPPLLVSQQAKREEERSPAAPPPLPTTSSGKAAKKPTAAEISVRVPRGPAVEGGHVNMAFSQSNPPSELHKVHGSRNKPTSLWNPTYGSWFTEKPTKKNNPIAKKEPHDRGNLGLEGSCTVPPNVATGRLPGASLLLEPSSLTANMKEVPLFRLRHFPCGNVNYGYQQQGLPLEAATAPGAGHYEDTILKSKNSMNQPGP

`COc1cc2c(cc1Nc1ncc(Cl)c(Nc3ccc(N4CCOCC4)cc3OC)n1)CCN(CCN1CCOCC1)CC2` [Example 1523, 5-Chloro-N(2)-[8-methoxy-3-(2-morpholin-4-yl-ethyl)-2,3,4,5-tetrahydro-1H-3-benzazepin-7-yl]-N(4)-(2-methoxy-4-morpholin-4-yl-phenyl)-pyrimidine-2,4-diamine]: the IC50 in test [1] is less than 0.1 µM; in test [2] it was more than 10 µM.

`CNC(=O)c1ccccc1Nc1nc(Nc2cc3c(cc2OC)CCN(CCN2CCOCC2)CC3)ncc1Cl` [Example 1524, 2-{5-Chloro-2-[8-methoxy-3-(2-morpholin-4-yl-ethyl)-2,3,4,5-tetrahydro-1H-3-benzazepin-7-ylamino]-pyrimidin-4-ylamino}-N-methyl-benzamide]: the IC50 in test [1] was less than 0.1 µM; in test [2] it was 1 to 10 µM.

As for `COc1cc2c(cc1Nc1ncc(Cl)c(Nc3ccccc3S(=O)(=O)N(C)C)n1)CCN(CC(=O)N1CCOCC1)CC2` [Example 1525, 2-{5-Chloro-2-[8-methoxy-3-(2-morpholin-4-yl-2-oxo-ethyl)-2,3,4,5-tetrahydro-1H-3-benzazepin-7-ylamino]-pyrimidin-4-ylamino}-N,N-dimethyl-benzenesulfonamide], the IC50 was less than 0.1 µM in test [1] and more than 10 µM in test [2].

Take `COc1cc2c(cc1Nc1ncc(Cl)c(Nc3ccc(N4CCOCC4)cc3OC)n1)CCN(CC(=O)N1CCOCC1)CC2` [Example 1526, 2-{7-[5-Chloro-4-(2-methoxy-4-morpholin-4-yl-phenylamino)-pyrimidin-2-ylamino]-8-methoxy-1,2,4,5-tetrahydro-3-benzazepin-3-yl}-1-morpholin-4-yl-ethanone]: the IC50 in test [1] is less than 0.1 µM; in test [2], more than 10 µM.

On to `COc1cc2c(cc1Nc1ncc(Cl)c(N[C@H]3[C@@H](C(N)=O)[C@@H]4C=C[C@H]3C4)n1)CCN(CC(=O)N1CCOCC1)CC2` [Example 1527, (1S,2S,3R,4R)-3-{5-Chloro-2-[8-methoxy-3-(2-morpholin-4-yl-2-oxo-ethyl)-2,3,4,5-tetrahydro-1H-3-benzazepin-7-ylamino]-pyrimidin-4-ylamino}-bicyclo[2.2.1]hept-5-ene-2-carboxylic acid amide], for which the IC50 was less than 0.1 µM in test [1] and more than 10 µM in test [2].

With `COc1cc2c(cc1Nc1ncc(Cl)c(N[C@@H]3CCCC[C@H]3NS(C)(=O)=O)n1)CCN(CC(=O)N1CCOCC1)CC2` [Example 1528, N-((1R,2R)-2-{5-Chloro-2-[8-methoxy-3-(2-morpholin-4-yl-2-oxo-ethyl)-2,3,4,5-tetrahydro-1H-3-benzazepin-7-ylamino]-pyrimidin-4-ylamino}-cyclohexyl)-methanesulfonamide], the figures for the IC50 in test [1] and in test [2] were less than 0.1 µM and more than 10 µM, respectively.

With `COc1cc2c(cc1Nc1ncc(Cl)c(N[C@H]3[C@@H](C(N)=O)[C@@H]4C=C[C@H]3C4)n1)CCN(CCN1CCOCC1)CC2` [Example 1529, (1S,2S,3R,4R)-3-{5-Chloro-2-[8-methoxy-3-(2-morpholin-4-yl-ethyl)-2,3,4,5-tetrahydro-1H-3-benzazepin-7-ylamino]-pyrimidin-4-ylamino}-bicyclo[2.2.1]hept-5-ene-2-carboxylic acid amide], the IC50 is less than 0.1 µM in test [1] and more than 10 µM in test [2].

As to `COc1cc2c(cc1Nc1ncc(Cl)c(Nc3ccccc3S(=O)(=O)N(C)C)n1)CCN(CCO)CC2` [Example 1530, 2-{5-Chloro-2-[3-(2-hydroxy-ethyl)-8-methoxy-2,3,4,5-tetrahydro-1H-3-benzazepin-7-ylamino]-pyrimidin-4-ylamino}-N,N-dimethyl-benzenesulfonamide], the IC50 in test [1] was less than 0.1 µM; in test [2] it was 1 to 10 µM.

`COc1cc2c(cc1Nc1ncc(Cl)c(N[C@@H]3CCCC[C@H]3NS(C)(=O)=O)n1)CCN(CCO)CC2` [Example 1531, N-((1R,2R)-2-{5-Chloro-2-[3-(2-hydroxy-ethyl)-8-methoxy-2,3,4,5-tetrahydro-1H-3-benzazepin-7-ylamino]-pyrimidin-4-ylamino}-cyclohexyl)-methanesulfonamide]: the IC50 in test [1] is less than 0.1 µM; in test [2], more than 10 µM.

On to `COc1cc2c(cc1Nc1ncc(Cl)c(N[C@H]3[C@@H](C(N)=O)[C@@H]4C=C[C@H]3C4)n1)CCN(CCO)CC2` [Example 1532, (1S,2S,3R,4R)-3-{5-Chloro-2-[3-(2-hydroxy-ethyl)-8-methoxy-2,3,4,5-tetrahydro-1H-3-benzazepin-7-ylamino]-pyrimidin-4-ylamino}-bicyclo[2.2.1]hept-5-ene-2-carboxylic acid amide], for which the IC50 is less than 0.1 µM in test [1] and more than 10 µM in test [2].

In the case of `COc1cc2c(cc1Nc1ncc(Cl)c(N[C@@H]3CCCC[C@H]3NS(C)(=O)=O)n1)CCN(CCN1CCOCC1)CC2` [Example 1533, N-((1R,2R)-2-{5-Chloro-2-[8-methoxy-3-(2-morpholin-4-yl-ethyl)-2,3,4,5-tetrahydro-1H-3-benzazepin-7-ylamino]-pyrimidin-4-ylamino}-cyclohexyl)-methanesulfonamide], the IC50 in test [1] is less than 0.1 µM; in test [2], more than 10 µM.

Take `COc1cc2c(cc1Nc1ncc(Cl)c(Nc3ccccc3S(=O)(=O)C(C)C)n1)CCN(CCN1CCOCC1)CC2` [Example 1534, 5-Chloro-N(2)-[8-methoxy-3-(2-morpholin-4-yl-ethyl)-2,3,4,5-tetrahydro-1H-3-benzazepin-7-yl]-N(4)-[2-(propane-2-sulfonyl)-phenyl]-pyrimidine-2,4-diamine]: the results for the IC50 in test [1] and in test [2] were less than 0.1 µM and more than 10 µM, respectively.

With `COc1cc2c(cc1Nc1ncc(Cl)c(Nc3ccccc3S(=O)(=O)C(C)C)n1)CCN(CC(=O)N1CCOCC1)CC2` [Example 1536, 2-(7-{5-Chloro-4-[2-(propane-2-sulfonyl)-phenylamino]-pyrimidin-2-ylamino}-8-methoxy-1,2,4,5-tetrahydro-3-benzazepin-3-yl)-1-morpholin-4-yl-ethanone], the values for the IC50 in test [1] and in test [2] were less than 0.1 µM and more than 10 µM, respectively.

On to `COc1cc2c(cc1Nc1ncc(Cl)c(Nc3ccc(N(C)C)cc3OC)n1)CCN(CCN1CCOCC1)CC2` [Example 1537, 5-Chloro-N(4)-(4-dimethylamino-2-methoxy-phenyl)-N(2)-[8-methoxy-3-(2-morpholin-4-yl-ethyl)-2,3,4,5-tetrahydro-1H-3-benzazepin-7-yl]-pyrimidine-2,4-diamine], for which the IC50 in test [1] was less than 0.1 µM; in test [2], more than 10 µM.

On to `COc1cc2c(cc1Nc1ncc(Cl)c(Nc3ccccc3S(=O)(=O)N(C)C)n1)CCN(CC(=O)N1CCN(C)CC1)CC2` [Example 1538, 2-(5-Chloro-2-{8-methoxy-3-[2-(4-methyl-piperazin-1-yl)-2-oxo-ethyl]-2,3,4,5-tetrahydro-1H-3-benzazepin-7-ylamino}-pyrimidin-4-ylamino)-N,N-dimethyl-benzenesulfonamide], for which the IC50 in test [1] is less than 0.1 µM; in test [2], 1 to 10 µM.

Turning to `COc1cc2c(cc1Nc1ncc(Cl)c(N[C@H]3[C@@H](C(N)=O)[C@@H]4C=C[C@H]3C4)n1)CCN(CC(=O)N1CCN(C)CC1)CC2` [Example 1539, (1S,2S,3R,4R)-3-(5-Chloro-2-{8-methoxy-3-[2-(4-methyl-piperazin-1-yl)-2-oxo-ethyl]-2,3,4,5-tetrahydro-1H-3-benzazepin-7-ylamino}-pyrimidin-4-ylamino)-bicyclo[2.2.1]hept-5-ene-2-carboxylic acid amide], the IC50 in test [1] is less than 0.1 µM; in test [2], more than 10 µM.

With `COc1cc2c(cc1Nc1ncc(Cl)c(Nc3ccc(N(C)C)cc3OC)n1)CCN(CC(=O)N1CCN(C)CC1)CC2` [Example 1540, 2-{7-[5-Chloro-4-(4-dimethylamino-2-methoxy-phenylamino)-pyrimidin-2-ylamino]-8-methoxy-1,2,4,5-tetrahydro-3-benzazepin-3-yl}-1-(4-methyl-piperazin-1-yl)-ethanone], the IC50 in test [1] was less than 0.1 µM; in test [2] it was more than 10 µM.

As to `COc1cc2c(cc1Nc1ncc(Cl)c(Nc3ccccc3S(=O)(=O)C(C)C)n1)CCN(CC(=O)N1CCN(C)CC1)CC2` [Example 1541, 2-(7-{5-Chloro-4-[2-(propane-2-sulfonyl)-phenylamino]-pyrimidin-2-ylamino}-8-methoxy-1,2,4,5-tetrahydro-3-benzazepin-3-yl)-1-(4-methyl-piperazin-1-yl)-ethanone], the IC50 in test [1] is less than 0.1 µM; in test [2] it was more than 10 µM.

Take `COc1cc2c(cc1Nc1ncc(Cl)c(Nc3ccccc3S(=O)(=O)N(C)C)n1)CCN(CCOC(=O)CN)CC2` [Example 1542, Amino-acetic acid 2-{7-[5-chloro-4-(2-dimethylsulfamoyl-phenylamino)-pyrimidin-2-ylamino]-8-methoxy-1,2,4,5-tetrahydro-benzo[d]azepin-3-yl}-ethyl ester]: the IC50 is less than 0.1 µM in test [1] and 1 to 10 µM in test [2].

Consider `COc1cc2c(cc1Nc1ncc(Cl)c(Nc3ccccc3S(=O)(=O)N3CCCC3)n1)CCN(CCO)CC2` [Example 1543, 2-(7-{5-Chloro-4-[2-(pyrrolidine-1-sulfonyl)-phenylamino]-pyrimidin-2-ylamino}-8-methoxy-1,2,4,5-tetrahydro-3-benzazepin-3-yl)-ethanol], for which the figures for the IC50 in test [1] and in test [2] were less than 0.1 µM and 1 to 10 µM, respectively.

As to `COc1cc2c(cc1Nc1ncc(Cl)c(Nc3ccccc3S(=O)(=O)N(C)C)n1)CCN(CCOC(=O)[C@@H](N)C(C)C)CC2` [Example 1544, (S)-2-Amino-3-methyl-butyric acid 2-{7-[5-chloro-4-(2-dimethylsulfamoyl-phenylamino)-pyrimidin-2-ylamino]-8-methoxy-1,2,4,5-tetrahydro-3-benzazepin-3-yl}-ethyl ester], the IC50 in test [1] is less than 0.1 µM; in test [2], 1 to 10 µM.
